Test results: patent US20210260010A1, “COMPOSITIONS AND METHODS FOR THE REDUCTION OR TREATMENT OF INFLAMMATION” (AXCELLA HEALTH INC., priority 2018, published 2021)

Test system: MCP1/CCL2
Assay: MCP1/CCL2 secretion by primary human hepatocytes exposed to free fatty acids and TNF-α (ELISA)
Type: cell-based
Settings: for MCP1 expression relative to Control- Donor 1, Mean: donor 1 hepatocytes; for MCP1 expression relative to Control- Donor 1, Mean / MCP1 expression relative to Control- Donor 2, Mean: FFA + TNF-α, baseline subtracted; for MCP1 expression relative to Control- Donor 2, Mean: donor 2 hepatocytes; for MCP1/CCL2 secretion (baseline subtracted): primary human hepatocytes from two healthy donors, FFA 250 uM + TNF-α 1 ng/ml
Description: Hepatocyte lipotoxicity appears to be a central driver of hepatic cellular injury via oxidative stress and endoplasmic reticulum (ER) stress. The ability of amino acids to influence steatosis (lipid accumulation) and inflammation in hepatocytes was assessed using human primary hepatocytes (Lonza, TRL).
Primary hepatocytes lot nos. from two healthy human donors were seeded on day 0 at density of 6e04 cells in 96 well optical microplates (Thermofisher) in hepatocyte plating media (William's E medium (Gibco) supplemented with 10% heat-inactivated FBS (Atlanta Bio), 2 mM Glutamax (Gibco) and 0.2% Primocin (InVivoGen) and incubated for 6 hours at 37° C., 5% CO2. After 6 hours, cells were washed twice and incubated overnight at 37° C., 5% CO2 with Hepatocytes defined medium (Corning) supplemented with 2 mM Glutamax (Gibco) and 1× Penicillin/Streptomycin. On day 1, cells were washed twice and incubated for 24 h in the hepatocyte culture media in the same conditions described above.
On day 2, cells were washed twice with DPBS 1× (Gibco) and maintained in amino acid-free WEM (US Biologicals) containing a defined custom amino acid concentration based on the mean physiological concentrations in blood. The values are published in the Human Metabolome Database (Wishart D S, Tzur D, Knox C, et al., HMDB: the Human Metabolome Database. Nucleic Acids Res. January 2007; 35(Database issue):D521-6. 17202168; which is hereby incorporated by reference in its entirety). This custom media is supplemented with 11 mM Glucose, 0.272 mM Sodium Pyruvate, and a dose curve of defined amino acid compositions (i.e., vehicle, LIVRQ+N-acetylcysteine, LIVRQ, RQ+N-acetylcysteine, N-acetylcysteine alone, LIV, or individually with L-Leucine, L-Isoleucine, L-Valine, L-Arginine, L-Glutamine, and L-Cysteine) at various ranges of concentrations. Cells were maintained in this defined media for 24 hours at 37° C., 5% CO2.
After pre-treatment, cells were exposed to free fatty acids (FFA) at 250 uM with a ratio of 2:1 (Oleate:Palmitate) supplemented with TNF-α (Thermofisher) at 1 ng/ml or vehicle. Cells were incubated with the FFAs mixture and the different amino acids combinations for 24 hours at 37° C., 5% CO2. After 24 hours incubation, media was removed for cytokine analysis and replaced by fresh media containing the same stimulus conditions and amino acid concentrations. Cells were incubated for an additional 48 hours for a total of 72 hours of FFA and TNFα stimulation.
Human CCL2 (MCP-1) was measured by ELISA (Human […] DuoSet ELISA, R&D Systems) at ⅕ or 1/10 dilution in 1× Reagent Diluent (Reagent Ancillary Kit 2, R&D Systems). Data were normalized to the specific per well cell density determined by nuclei count stained by Hoechst 3342 (Life technologies) in the fluorescence microscopy described below.

[1] = Conc. 153 μM (baseline comparator)
[2] = Conc. 109 μM (baseline comparator)
[3] = Conc. 749 μM (baseline comparator)
[4] = Conc. 66 μM (baseline comparator)
[5] = Conc. 234 μM (baseline comparator)

CC(C)C[C@H](N)C(=O)O [Leucine, L-Leucine]
MCP1 expression relative to Control- Donor 1, Mean [1]: 5.92E−16
MCP1 expression relative to Control- Donor 2, Mean [1]: −4.7E−15
MCP1 expression relative to Control- Donor 1, Mean (Conc. 3054 μM): 3.34
MCP1 expression relative to Control- Donor 2, Mean (Conc. 3054 μM): 16.11
MCP1 expression relative to Control- Donor 1, Mean (Conc. 7635 μM): 1.896
MCP1 expression relative to Control- Donor 2, Mean (Conc. 7635 μM): −2.988
MCP1 expression relative to Control- Donor 1, Mean (Conc. 15270 μM): −1.368
MCP1 expression relative to Control- Donor 2, Mean (Conc. 15270 μM): −26.6436
MCP1/CCL2 secretion (baseline subtracted): did not have an effect

N=C(N)NCCC[C@H](N)C(=O)O [Arginine, L-Arginine]
MCP1 expression relative to Control- Donor 1, Mean [2]: 2.37E−15
MCP1 expression relative to Control- Donor 2, Mean [2]: −4.7E−15
MCP1 expression relative to Control- Donor 1, Mean (Conc. 1088 μM): 5.114
MCP1 expression relative to Control- Donor 2, Mean (Conc. 1088 μM): 24.95
MCP1 expression relative to Control- Donor 1, Mean (Conc. 2720 μM): 6.527
MCP1 expression relative to Control- Donor 2, Mean (Conc. 2720 μM): 24.06
MCP1 expression relative to Control- Donor 1, Mean (Conc. 5440 μM): 10.9386
MCP1 expression relative to Control- Donor 2, Mean (Conc. 5440 μM): 8.494
MCP1/CCL2 secretion (baseline subtracted): increased

NC(=O)CC[C@H](N)C(=O)O [Glutamine, L-Glutamine]
MCP1 expression relative to Control- Donor 1, Mean [3]: 0
MCP1 expression relative to Control- Donor 2, Mean [3]: 2.84E−14
MCP1 expression relative to Control- Donor 1, Mean (Conc. 3747 μM): −0.8981
MCP1 expression relative to Control- Donor 2, Mean (Conc. 3747 μM): −45.0574
MCP1 expression relative to Control- Donor 1, Mean (Conc. 11242 μM): −9.001
MCP1 expression relative to Control- Donor 2, Mean (Conc. 11242 μM): −90.6558
MCP1 expression relative to Control- Donor 1, Mean (Conc. 22484 μM): −21.8392
MCP1 expression relative to Control- Donor 2, Mean (Conc. 22484 μM): −138.873
MCP1/CCL2 secretion (baseline subtracted): significantly decrease

CC[C@H](C)[C@H](N)C(=O)O [Isoleucine, L-Isoleucine]
MCP1 expression relative to Control- Donor 1, Mean [4]: −1.2E−15
MCP1 expression relative to Control- Donor 2, Mean [4]: 0
MCP1 expression relative to Control- Donor 1, Mean (Conc. 1328 μM): −0.3073
MCP1 expression relative to Control- Donor 2, Mean (Conc. 1328 μM): 26.62
MCP1 expression relative to Control- Donor 1, Mean (Conc. 3320 μM): −2.417
MCP1 expression relative to Control- Donor 2, Mean (Conc. 3320 μM): −5.645
MCP1 expression relative to Control- Donor 1, Mean (Conc. 6639 μM): −0.205
MCP1 expression relative to Control- Donor 2, Mean (Conc. 6639 μM): 18.62
MCP1/CCL2 secretion (baseline subtracted): did not have an effect

CC(C)[C@H](N)C(=O)O [Valine, L-Valine]
MCP1 expression relative to Control- Donor 1, Mean [5]: −2.4E−15
MCP1 expression relative to Control- Donor 2, Mean [5]: −1.4E−14
MCP1 expression relative to Control- Donor 1, Mean (Conc. 4684 μM): 23.6867
MCP1 expression relative to Control- Donor 2, Mean (Conc. 4684 μM): 10.79
MCP1 expression relative to Control- Donor 1, Mean (Conc. 11710 μM): 77.73
MCP1 expression relative to Control- Donor 2, Mean (Conc. 11710 μM): 38.25
MCP1 expression relative to Control- Donor 1, Mean (Conc. 23420 μM): 14.17
MCP1 expression relative to Control- Donor 2, Mean (Conc. 23420 μM): −30.7921
MCP1/CCL2 secretion (baseline subtracted): did not have an effect

CC(=O)N[C@@H](CS)C(=O)O [NAC, N-acetylcysteine]
MCP1 expression relative to Control- Donor 1, Mean (Conc. 1000 μM): −0.7629
MCP1 expression relative to Control- Donor 2, Mean (Conc. 1000 μM): 1.602
MCP1 expression relative to Control- Donor 1, Mean (Conc. 2500 μM): −2.498
MCP1 expression relative to Control- Donor 2, Mean (Conc. 2500 μM): −4.0591
MCP1 expression relative to Control- Donor 1, Mean (Conc. 5000 μM): −10.8919
MCP1 expression relative to Control- Donor 2, Mean (Conc. 5000 μM): −10.5725
MCP1 expression relative to Control- Donor 1, Mean (Conc. 10000 μM): −17.6065
MCP1 expression relative to Control- Donor 2, Mean (Conc. 10000 μM): −28.4419
MCP1 expression relative to Control- Donor 1, Mean (Conc. 5 X): −0.7629
MCP1 expression relative to Control- Donor 1, Mean (Conc. 10 X): −2.498
MCP1 expression relative to Control- Donor 1, Mean (Conc. 20 X): −10.8919
MCP1 expression relative to Control- Donor 1, Mean (Conc. 40 X): −17.6065
MCP1 expression relative to Control- Donor 2, Mean (Conc. (X) 1000): 1.602
MCP1 expression relative to Control- Donor 2, Mean (Conc. (X) 2500): −4.0591
MCP1 expression relative to Control- Donor 2, Mean (Conc. (X) 5000): −10.5725
MCP1 expression relative to Control- Donor 2, Mean (Conc. (X) 10000): −28.4419
MCP1/CCL2 secretion (baseline subtracted): significantly decrease
